Our source for the Ki values is ChEMBL document CHEMBL5725746, “Spiro-thiazolones” (2018).

For orientation: Ki means a measure of affinity in units of concentration, obtained from inhibition or displacement. Higher therefore signals a looser hold on the target.

The target in this assay is Vasopressin V1a receptor (Homo sapiens, UniProt P37288). The assay can be described thus: competition binding assay: The human V1a receptor was cloned by RT-PCR from total human liver RNA. The coding sequence was subcloned in an expression vector after sequencing to confirm the identity of the amplified sequence. […] Cell membranes were prepared from HEK293 cells transiently transfected with the expression vector and grown in 20 liter fermenters with the following protocol.50 g of cells are re-suspended in 30 ml freshly prepared ice cold Lysis buffer (50 mM HEPES, 1 mM EDTA, 10 mM MgCl2 adjusted to pH=7.4+complete cocktail of protease inhibitor (Roche Diagnostics)). Homogenized with Polytron for 1 min and sonicated on ice for 2×2 minutes at 80% intensity (Vibracell sonicator). The preparation is centrifuged 20 min at 500 g at 4° C., the pellet is discarded and the supernatant centrifuged 1 hour at 43,000 g at 4° C. (19,000 rpm). The pellet is re-suspended in 12.5 ml Lysis buffer+12.5 ml Sucrose 20% and homogenized using a Polytron for 1-2 min. The protein concentration is determined by the Bradford method and aliquots are stored at −80° C. until use. For binding studies 60 mg Yttrium silicate SPA beads (Amersham) are mixed with an aliquot of membrane in binding buffer (50 mM Tris, 120 mM NaCl, 5 mM KCl, 2 mM CaCl2, 10 mM MgCl2) for 15 minutes with mixing. […].
Sequence of Vasopressin V1a receptor (P37288 whole entry): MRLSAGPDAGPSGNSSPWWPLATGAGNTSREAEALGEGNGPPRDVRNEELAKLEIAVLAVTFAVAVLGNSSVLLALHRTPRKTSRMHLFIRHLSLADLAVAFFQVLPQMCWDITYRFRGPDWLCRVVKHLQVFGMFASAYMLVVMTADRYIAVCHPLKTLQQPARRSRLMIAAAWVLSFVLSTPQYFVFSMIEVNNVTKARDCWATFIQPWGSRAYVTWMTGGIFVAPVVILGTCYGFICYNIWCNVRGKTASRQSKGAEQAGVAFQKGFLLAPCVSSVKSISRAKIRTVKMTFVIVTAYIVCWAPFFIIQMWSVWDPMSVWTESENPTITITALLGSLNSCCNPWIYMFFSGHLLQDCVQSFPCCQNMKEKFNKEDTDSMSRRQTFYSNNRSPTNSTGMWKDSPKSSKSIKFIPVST

Turning to `C/C(=C1/SC(N2CCC3(CC2)OCc2ccccc23)=NC1=O)c1nccs1`, the Ki was determined as 1 nM. Turning to `C/C(=C1\SC(N2CCC3(CC2)OCc2ccccc23)=NC1=O)c1ccc(Cl)nc1`, the Ki turned out to be 3.16 nM.
